Source: ChEMBL document CHEMBL3120136 (J Med Chem, 2014)

Columns and labels:
[1] = Inhibition of Hepatitis C virus full-length NS3/4A protease assessed as quenched-fluorogenic RET-S1 substrate cleavage incubated for 10 mins prior to substrate addition by FRET analysis; design: species or system Hepacivirus hominis
[2] = tested on: Hepatitis C virus; experiment: Antiviral activity against Hepatitis C virus infected in human HuH7 cells assessed as inhibition of HCV subgenomic replicon replication after 72 hrs by ELISA; format: functional, organism-based, Hepacivirus hominis, Huh-7; conditions: Hepatitis C virus, Huh-7, 72 h; read-out: EC50

Structure (SMILES)	IC50 [1]	EC50 [2]
CC(C)(C)OC(=O)N[C@H]1CCCCC/C=C\[C@@H]2C[C@@]2(C(=O)NS(=O)(=O)C2CC2)NC(=O)[C@@H]2C[C@@H](NS(=O)(=O)c3cccc4ccccc34)CN2C1=O	470 nM	> 10000 nM
CC(C)(C)OC(=O)N[C@H]1CCCCC/C=C\[C@@H]2C[C@@]2(C(=O)NS(=O)(=O)C2CC2)NC(=O)[C@@H]2C[C@@H](NC(=S)N3CCc4ccccc4C3)CN2C1=O	8.2 nM	365 nM
CC(C)(C)OC(=O)N[C@H]1CCCCC/C=C\[C@@H]2C[C@@]2(C(=O)NS(=O)(=O)C2CC2)NC(=O)[C@@H]2C[C@@H](Nc3nc4ccccc4o3)CN2C1=O	21 nM	730 nM
CC(C)(C)OC(=O)N[C@H]1CCCCC/C=C\[C@@H]2C[C@@]2(C(=O)NS(=O)(=O)C2CC2)NC(=O)[C@@H]2C[C@@H](NC(=O)c3cc4ccccc4s3)CN2C1=O	1.4 nM	21 nM
CC(C)(C)OC(=O)N[C@H]1CCCCC/C=C\[C@@H]2C[C@@]2(C(=O)NS(=O)(=O)C2CC2)NC(=O)[C@@H]2C[C@@H](NC(=O)c3sc4cccc(Cl)c4c3Cl)CN2C1=O	1.4 nM	9.5 nM
CC(C)(C)OC(=O)N[C@H]1CCCCC/C=C\[C@@H]2C[C@@]2(C(=O)NS(=O)(=O)C2CC2)NC(=O)[C@@H]2C[C@@H](NC(=O)c3nc4ccccc4s3)CN2C1=O	3.5 nM	13 nM
CC(C)(C)OC(=O)N[C@H]1CCCCC/C=C\[C@@H]2C[C@@]2(C(=O)NS(=O)(=O)C2CC2)NC(=O)[C@@H]2C[C@@H](NC(=O)c3nc4cc(Cl)ccc4s3)CN2C1=O	5.2 nM	126 nM
CC(C)(C)OC(=O)N[C@H]1CCCCC/C=C\[C@@H]2C[C@@]2(C(=O)NS(=O)(=O)C2CC2)NC(=O)[C@@H]2C[C@@H](NC(=O)c3nc4ccccc4[nH]3)CN2C1=O	6.4 nM	614 nM
CC(C)(C)OC(=O)N[C@H]1CCCCC/C=C\[C@@H]2C[C@@]2(C(=O)NS(=O)(=O)C2CC2)NC(=O)[C@@H]2C[C@@H](O)CN2C1=O	75 nM	2130 nM
CO[C@@H]1C[C@H]2C(=O)N[C@]3(C(=O)NS(=O)(=O)C4CC4)C[C@H]3/C=C\CCCCC[C@H](NC(=O)OC(C)(C)C)C(=O)N2C1	220 nM	6300 nM
CC(=O)O[C@@H]1C[C@H]2C(=O)N[C@]3(C(=O)NS(=O)(=O)C4CC4)C[C@H]3/C=C\CCCCC[C@H](NC(=O)OC(C)(C)C)C(=O)N2C1	12 nM	3910 nM
N[C@H]1CCCCC/C=C\[C@@H]2C[C@@]2(C(=O)NS(=O)(=O)C2CC2)NC(=O)[C@@H]2C[C@@H](OC(=O)N3Cc4cccc(F)c4C3)CN2C1=O	20 nM	3050 nM
N[C@H]1CCCCC/C=C\[C@@H]2C[C@@]2(C(=O)NS(=O)(=O)C2CC2)NC(=O)[C@@H]2C[C@@H](OC(=O)N3Cc4cccc(Cl)c4C3)CN2C1=O	3 nM	150 nM
CC(C)(C)OC(=O)N[C@H]1CCOCCCC[C@@H]2C[C@@]2(C(=O)NS(=O)(=O)C2CC2)NC(=O)[C@@H]2C[C@@H](OC(=O)N3Cc4cccc(F)c4C3)CN2C1=O	0.7 nM	19 nM
CC(C)(C)OC(=O)N[C@H]1CCCOCCC[C@@H]2C[C@@]2(C(=O)NS(=O)(=O)C2CC2)NC(=O)[C@@H]2C[C@@H](OC(=O)N3Cc4cccc(F)c4C3)CN2C1=O	1 nM	254 nM
CC(C)(C)OC(=O)N[C@H]1CCC(F)(F)CC/C=C\[C@@H]2C[C@@]2(C(=O)NS(=O)(=O)C2CC2)NC(=O)[C@@H]2C[C@@H](OC(=O)N3Cc4cccc(F)c4C3)CN2C1=O	1.5 nM	7.2 nM
CC(C)(C)OC(=O)N[C@H]1CCCC(F)(F)C/C=C\[C@@H]2C[C@@]2(C(=O)NS(=O)(=O)C2CC2)NC(=O)[C@@H]2C[C@@H](OC(=O)N3Cc4cccc(F)c4C3)CN2C1=O	0.5 nM	44 nM
CC(C)(C)OC(=O)N[C@H]1CCNCC/C=C\[C@@H]2C[C@@]2(C(=O)NS(=O)(=O)C2CC2)NC(=O)[C@@H]2C[C@@H](OC(=O)N3Cc4cccc(F)c4C3)CN2C1=O	9.7 nM	1830 nM
CC(C)(C)OC(=O)N[C@H]1CCN(CC(F)(F)F)CC/C=C\[C@@H]2C[C@@]2(C(=O)NS(=O)(=O)C2CC2)NC(=O)[C@@H]2C[C@@H](OC(=O)N3Cc4cccc(F)c4C3)CN2C1=O	1.8 nM	24 nM
CN1CC/C=C\[C@@H]2C[C@@]2(C(=O)NS(=O)(=O)C2CC2)NC(=O)[C@@H]2C[C@@H](OC(=O)N3Cc4cccc(F)c4C3)CN2C(=O)[C@@H](NC(=O)OC(C)(C)C)CC1	7 nM	837 nM
